Measurements: the OPERA property sets (Mansouri et al. 2018)

Conditions: not given

Structure (SMILES)	ready biodegradability	boiling point [°C]	melting point [°C]	log10 Henry constant (atm·m³/mol)	log10 biodegradation half-life (days)	log10 vapour pressure (mmHg)	log10 Koc (L/kg)
CCCCCCCCCCSSCCCCCCCCCC	not readily biodegradable						
CCNC(C)C		69.6					
C[C@@H]1CC2=CC(=O)CC[C@]2(C)[C@H]2CC[C@@]3(C)[C@@H](CC[C@]3(C)O)[C@H]12			146				
CC(C)COC(N)=O		207	67				
c1ccc2c(c1)Cc1c-2ccc2ccccc12		405	190	-4.58	2.15	-6.61	
c1ccc2c(c1)CC1c3ccccc3CCN1C2 (stereo unspecified)	not readily biodegradable		85				
O=P1(N(CCCl)CCCl)NCCCO1 (stereo unspecified)	not readily biodegradable		51.5				
CCN(CC)C(=O)/C(Cl)=C(/C)OP(=O)(OC)OC			-45			-4.78	
C[Si]1(C)N[Si](C)(C)N[Si](C)(C)N[Si](C)(C)N1		225	97.5				
CCCCCCCCCCCCCCCCCN		336	49				
CCN(CC)CC#CCOC(=O)C(O)(c1ccccc1)C1CCCCC1.Cl (stereo unspecified)			130				
O=C(Cn1c(=O)sc2ccc(Cl)cc21)N1CCN(CCO)CC1			160				
CCCCc1nc(Cl)c(CO)n1Cc1ccc(-c2ccccc2-c2nnn[nH]2)cc1			184				
CC(=O)C1(O)CCCCC1		126					
Cc1ccccc1B(O)O			166				
C1CC12CC2		39	-135			2.66	
Cc1ccc(C)c(C)c1C		205	-6.2		0.602	-0.443	
NNC(=O)c1ccccc1			115				
Cc1ccccc1N=Cc1ccccc1		314					
Clc1cc(Cl)cc(C2(CC(Cl)(Cl)Cl)CO2)c1 (stereo unspecified)			42.8				3.75
O=CNC1CCCCC1		260	39.5				
Cc1cc(C)oc(=O)c1		245	51.5				
Nc1ccc(S(=O)(=O)Nc2ccc(Cl)nn2)cc1			187				
CCN(CC)CCOC(=O)C(c1ccccc1)c1ccccc1			114				
CCCCCCCOCCCCCCC		258					
c1ccc2c(c1)sc1ccccc12	not readily biodegradable	332	97		1.56	-3.69	4.05

Structure (SMILES)	ready biodegradability	boiling point [°C]	melting point [°C]	log10 Henry constant (atm·m³/mol)	log10 biodegradation half-life (days)	log10 vapour pressure (mmHg)	log10 Koc (L/kg)
O=[N+]([O-])c1cc(Cl)cc(Cl)c1O	not readily biodegradable		122				
CCc1nn(CCCN2CCN(c3cccc(Cl)c3)CC2)c(=O)n1CCOc1ccccc1			83.5				
C=CCSSCC=C		188					
C1=Cc2ccccc2CC1		206	-8				
CCCCCCCCI		226	-45.7			-0.602	
CCCCCCCCCCCCCCCCOC(C)=O			-18.5				
O=S(=O)(O)CCN1CCN(CCS(=O)(=O)O)CC1	not readily biodegradable						
COC(=O)C(C)C(=O)OC		174					
c1ccc(CNCc2ccccc2)cc1			-26			-3.1	
CCCC[Si](C)(C)Cl		139					
C1CCC(C2CCCCC2)CC1		238	4			-0.967	
COc1ccc(C=O)c2ccccc12			34.8				
CCCCCCCCCCCCCCCCc1ccccc1		385	27			-5.45	
OCC(O)COc1ccccc1Cl (stereo unspecified)			71.5				
Oc1ccccc1O	readily biodegradable	246	105			-2.44	
O=C1CCCCCC1		178				0.0969	
CCOC(=O)CCCC(=O)OCC		236	-24.1			-0.793	
Oc1cc(O)cc(Cl)c1			118				
O=[N+]([O-])c1ccc2c(c1)Cc1ccccc1-2			157				
Cc1ccc2c(c1)CCC(C)C2 (stereo unspecified)		240	20				
CC(Cl)C(C)Cl (stereo unspecified)		118	-80			1.39	
CC(C)OC(=O)[C@H](O)[C@@H](O)C(=O)OC(C)C		275					
Cc1ccccc1N(C)C		194	-60			-0.0643	
CC(C)C(Nc1ccc(C(F)(F)F)cc1Cl)C(=O)OC(C#N)c1cccc(Oc2ccccc2)c1 (stereo unspecified)							5.71
Cc1ccc(NC(=O)N(C)C)cc1Cl	not readily biodegradable		148			-7.44	2.02

Same assay, conditions: fish

Structure (SMILES)	log10 biotransformation half-life (days)	log10 BCF
Cc1cc2ccccc2c2ccccc12	0.12	
Brc1cc(Br)cc(Br)c1	1.65	3.7
S=C=S		1.29
c1ccc(C2CCCC(C3CCCCC3)C2)cc1 (stereo unspecified)	0.45	
CCOP(=O)(OCC)OCC	-1.09	0.11
Clc1cc2ccccc2c2ccccc12	1.8	3.49
Cc1ccc(C)c(C)c1C	1.17	
c1ccc2c(c1)sc1ccccc12	0.83	3.05
O=[N+]([O-])c1cc(Cl)cc(Cl)c1O		1.32
C1CCC(C2CCCCC2)CC1	0.38	
